Read-outs that look alike come from different tables or passages of the source.
Legend:
Assay type in all cases: in vivo
[1] = test system: Phytophthora infestans (the causal agent of tomato late blight); test: whole plant or invertebrate; conditions: for pest or weed control at 40 ppm: Phytophthora infestans, 144 h, read-out: Percent Disease Control, Test B
[2] = test system: Plasmopara vilicola (the causal agent of grape downy mildew); test: Test A: grape downy mildew, test suspension sprayed on grape seedlings after inoculation, visual disease rating; conditions: for pest or weed control at 40 ppm: Plasmopara, 144 h, read-out: Percent Disease Control, Test A
Outline: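 Curative spray: spores applied first, plants kept 24 h in saturated air at 20 °C and dried before treatment, then 5 days at 20 °C plus 24 h saturated. Suspension: acetone (3% of volume) in 1:1 acetone/water, 250 ppm Trem 014, sprayed to run-off (200 ppm ≈ 500 g/ha); visual 0–100 control rating.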

[3] = test system: Phytophthora infestans (the causal agent of tomato late blight); test: whole plant or invertebrate; conditions: for pest or weed control at 40 ppm: Phytophthora infestans, 96 h, read-out: Percent Disease Control, Test C
[4] = compounds without asterisk (application rate not given), 100 = 100% disease control, 0 = no control relative to the controls

Compound	Percent Disease Control, Test B [1, 4]	Percent Disease Control, Test A [2, 4]	Percent Disease Control, Test C [3, 4]	Percent Disease Control, Test B ([1]; * tested at 40 ppm)	Percent Disease Control, Test A ([2]; * tested at 40 ppm)	Percent Disease Control, Test C ([3]; * tested at 40 ppm)	further results
Cc1cc(C(F)(F)F)nn1CC(=O)N1CCC(c2nc(C3=NOC4(CCCCC4)C3)cs2)CC1 [Compound 169]	100%	100%	99%				
Cc1cc(C(F)(F)F)nn1CC(=O)N1CCC(c2nc(C3=NOC4(CCOCC4)C3)cs2)CC1 [Compound 173]				100%	100%	99%	
Cc1cc(C(F)(F)F)nn1CC(=O)N1CCC(c2nc(C3=NOC4(CCCCCC4)C3)cs2)CC1 [Compound 174]				100%	100%	99%	
CC(=O)N1N=C(c2csc(C3CCN(C(=O)Cn4nc(C(F)(F)F)cc4C)CC3)n2)OC12CCCc1ccccc12 (stereo not drawn) [Compound 177]				100%	93%	99%	
Cc1cccc(C)c1[C@H]1CC(c2csc(C3CCN(C(=O)Cn4nc(C(F)(F)F)cc4C)CC3)n2)=NO1 [Compound 178, 1-[4-[4-[(5R)-5-(2,6-dimethylphenyl)-4,5-dihydro-3-isoxazolyl]-2-thiazolyl]-1-piperidinyl]-2-[5-methyl-3-(trifluoromethyl)-1H-pyrazol-1-yl]ethanone]							pest or weed control at 40 ppm [1]: 100%; pest or weed control at 40 ppm ([2]; * tested at 40 ppm): 100%; pest or weed control at 40 ppm [3]: 99%
Cc1cc(C)c([C@H]2CC(c3csc(C4CCN(C(=O)Cn5nc(C(F)(F)F)cc5C)CC4)n3)=NO2)c(C)c1 [Compound 179, 1-[4-[4-[(5R)-4,5-dihydro-5-(2,4,6-trimethylphenyl)-3-isoxazolyl]-2-thiazolyl]-1-piperidinyl]-2-[5-methyl-3-(trifluoromethyl)-1H-pyrazol-1-yl]ethanone]							pest or weed control at 40 ppm [1]: 100%; pest or weed control at 40 ppm ([2]; * tested at 40 ppm): 99%; pest or weed control at 40 ppm [3]: 98%
Cc1cc(C(F)(F)F)nn1CC(=O)N1CCC(c2nc(C3=NOC(c4ccncc4)C3)cs2)CC1 (stereo not drawn) [Compound 180]	100%	50%	99%				
CC(=O)N1N=C(c2csc(C3CCN(C(=O)Cn4nc(C(F)(F)F)cc4C)CC3)n2)OC1c1ccccc1 (stereo not drawn) [Compound 181]	100%	80%	97%				
CC(=O)N1N=C(c2csc(C3CCN(C(=O)Cn4nc(C(F)(F)F)cc4C)CC3)n2)OC1(C)c1ccccc1 (stereo not drawn) [Compound 182]	100%	99%	97%				
Cc1cc(C(F)(F)F)nn1CC(=O)N1CCC(c2nc(C3=NNC(c4ccccc4)C3)cs2)CC1 (stereo not drawn) [Compound 183]				92%	92%	33%	
Cc1cc(C(F)(F)F)nn1CC(=O)N1CCC(c2nc(C3=NN(C)C(c4ccccc4)C3)cs2)CC1 (stereo not drawn) [Compound 184]				95%	99%	73%	
Cc1cc(C(F)(F)F)nn1CC(=O)N1CCC(c2nc(C3=NO[C@]4(COc5ccccc54)C3)cs2)CC1 [Compound 185, 2-[5-methyl-3-(trifluoromethyl)-1H-pyrazol-1-yl]-1-[4-[4-(3R)-spiro[benzofuran-3(2H),5′(4′H)-isoxazol]-3′-yl-2-thiazolyl]-1-piperidinyl]ethanone]							pest or weed control at 40 ppm [1]: 100%; pest or weed control at 40 ppm ([2]; * tested at 40 ppm): 100%; pest or weed control at 40 ppm [3]: 98%
Cc1cc(C(F)(F)F)nn1CC(=O)N1CCC(c2nc(C3=NOC(N4CCCC4=O)C3)cs2)CC1 (stereo not drawn) [Compound 188]				100%	99%	99%	
Cc1cc(C(F)(F)F)nn1CC(=O)N1CCC(c2nc(C3=NOC(c4ccccc4Br)C3)cs2)CC1 (stereo not drawn) [Compound 189]				100%	100%	99%	
Cc1cc(C(F)(F)F)nn1CC(=O)N1CCC(c2nc(CN3C(=O)c4ccccc4C3=O)cs2)CC1 [Compound 191]	100%	99%	99%				
Cc1cc(C(F)(F)F)nn1CC(=O)N1CCC(c2nc(C3=NOC4(CCCCc5ccccc54)C3)cs2)CC1 (stereo not drawn) [Compound 192]				100%	99%	99%	
Cc1cc(C(F)(F)F)nn1CC(=O)N1CCC(c2nc(C3=NOC4(CCC4)C3)cs2)CC1 [Compound 193]				100%	100%	99%	
Cc1cc(C(F)(F)F)nn1CC(=O)N1CCC(c2nc(C3=NOC4(CCN(C(=O)OC(C)(C)C)CC4)C3)cs2)CC1 [Compound 194]				100%	94%	99%	
Cc1cc(C(F)(F)F)nn1CC(=O)N1CCC(c2nc(C3=NOC4(CCNCC4)C3)cs2)CC1 [Compound 195]	92%	48%	80%				
CC(=O)N1CCC2(CC1)CC(c1csc(C3CCN(C(=O)Cn4nc(C(F)(F)F)cc4C)CC3)n1)=NO2 [Compound 196]				100%	99%	99%	
CC(=O)N1N=C(c2csc(C3CCN(C(=O)Cn4nc(C(F)(F)F)cc4C)CC3)n2)CC1c1ccccc1 (stereo not drawn) [Compound 197]				100%	89%	90%	
Cc1cc(C(F)(F)F)nn1CC(=O)N1CCC(c2nc(C3=NOC(C4OCCO4)C3)cs2)CC1 (stereo not drawn) [Compound 199]	99%	91%	98%				
Cc1cc(C(F)(F)F)nn1CC(=O)N1CCC(c2nc(C3=NOC(C4(C)CO4)C3)cs2)CC1 (stereo not drawn) [Compound 200]	100%	80%	90%				
Cc1ncsc1C1CC(c2csc(C3CCN(C(=O)Cn4nc(C(F)(F)F)cc4C)CC3)n2)=NO1 (stereo not drawn) [Compound 201]				100%	99%	99%	
Cc1cc(C(F)(F)F)nn1CC(=O)N1CCC(c2nc(C3=NOC4c5ccccc5S(=O)(=O)C34)cs2)CC1 (stereo not drawn) [Compound 202]	100%	95%	98%				
Cc1cc(C(F)(F)F)nn1CC(=O)N1CCC(c2nc(-c3ccon3)cs2)CC1 [Compound 203]				100%	99%	92%	
Cc1cc(C(F)(F)F)nn1CC(=O)N1CCC(c2nc(C3=NOC(Oc4ccccc4)C3)cs2)CC1 (stereo not drawn) [Compound 204]				100%	99%	99%	
Cc1ccccc1C1(C)CC(c2csc(C3CCN(C(=O)Cn4nc(C(F)(F)F)cc4C)CC3)n2)=NO1 (stereo not drawn) [Compound 205]				100%	99%	99%	

From patent US9920030B2 (priority 2006, dated 2018)
